The target in the experiment is Zinc finger protein mex-5 (Caenorhabditis elegans) (UniProt Q9XUB2). Briefly: MEX-5 zinc finger-RNA interaction blockers – biochemical, fluorescence polarization, C. elegans, cherry-picked, round 3, dose response (AID 493250). The conditions noted are these: purified MEX-5-MBP, FITC-TCR2 RNA fluorescence polarization; for activity change, negative = inhibition: at 10 µM (top of the series). (In general: Fluorescence polarisation rises when a labelled molecule tumbles more slowly, as on binding a larger partner.)
Sequence of Zinc finger protein mex-5 (Caenorhabditis elegans) (Q9XUB2 whole entry, looked up): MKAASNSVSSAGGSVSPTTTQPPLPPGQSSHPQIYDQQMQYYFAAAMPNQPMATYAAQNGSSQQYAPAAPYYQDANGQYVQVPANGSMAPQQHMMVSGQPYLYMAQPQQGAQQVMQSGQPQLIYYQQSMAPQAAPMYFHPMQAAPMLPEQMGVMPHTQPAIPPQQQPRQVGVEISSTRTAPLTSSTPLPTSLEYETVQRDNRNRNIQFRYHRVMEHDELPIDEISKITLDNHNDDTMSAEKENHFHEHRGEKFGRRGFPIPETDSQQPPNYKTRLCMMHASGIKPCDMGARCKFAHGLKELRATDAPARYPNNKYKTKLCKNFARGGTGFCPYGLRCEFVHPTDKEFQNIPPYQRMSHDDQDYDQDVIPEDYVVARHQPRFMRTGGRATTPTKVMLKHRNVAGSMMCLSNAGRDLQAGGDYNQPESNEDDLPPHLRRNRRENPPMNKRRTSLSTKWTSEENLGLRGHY

This note sets out measurements from PubChem BioAssay AID493250 (Broad Institute, 2011).

Active and inactive are the calls of the source.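 Rule for the calls: active = signal decrease with fitted half-maximal dose at or below ten times the highest valid tested dose; inconclusive = poor fit, or flat fit at 30 to 70% inhibition; inactive = the rest.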 A value given as a limit tells only on which side of the number the result lay.

For the compound `O=C(O)c1ccc(NC2=C(Cl)C(=O)c3ccccc3C2=O)cc1`, the “activity change, negative = inhibition” value was “inactive”.
Same read-out and setting: in the case of `FC(F)(F)c1nc2cc3nc4ccccc4[nH]c3cc2n1` it was “inactive”; in that of `CN1CCc2nc3sc(C(=O)NC(C)(C)C)c(N)c3cc2C1`, “inactive”; in that of `O=C(O)c1[nH]c2ccccc2c1C(c1cc(Br)ccc1O)c1c(C(=O)O)[nH]c2ccccc12`, “inactive”.
Still for that read-out and setting: in the case of `Cc1c(N=Cc2cc3c(cc2[N+](=O)[O-])OCO3)cccc1[N+](=O)[O-]` it was “inactive”; in that of `Cc1cccn2c(=O)c3cc(S(=O)(=O)c4ccc(Br)cc4)c(=N)n(C4CCCCC4)c3nc12`, “inactive”.
Regarding `CCS(=O)(=O)C1=NN2C(=N)/C(=C\c3ccc(SCc4ccco4)o3)C(=O)N=C2S1`, the AC50 (in general, the concentration giving half of the maximal activity seen) was 10.4 µM.
Take `CC1(N2CCOCC2)CC2(O)C(=[N+]1[O-])CCc1c2no[n+]1[O-]` (stereo not given): the “activity change, negative = inhibition” value is “inactive”.
As for `CCN(CC)Cc1c(O)ccc2c1O/C(=C\C=C\c1ccccc1)C2=O`, the half-maximal activity concentration (AC50) is 4.38 µM.
As for `Cn1c(CNC(=O)c2ccc(F)cc2)cc2ccccc21`, the “activity change, negative = inhibition” value was “inactive”.
Still for that read-out and setting: the result for `COc1ccc2c(c1)NC(c1ccc(N(C)C)cc1)c1cccn1-2` (stereo not given) reads “inactive”.
Still for that read-out and setting: the result for `COc1ccc(-c2csc(Nc3ccc(S(N)(=O)=O)cc3)n2)cc1OC` reads “inactive”.
Turning to `COc1cccc(NCc2cc(=O)oc3cc(C)c(C(C)C)cc23)c1`, the “activity change, negative = inhibition” value was “inactive”.
On to `CN1CC=C2C(C#N)=C(N)C(C#N)(C#N)C(Cc3ccccc3)C2C1` (stereo not given), for which the concentration at half-maximal activity (AC50) was 4.69 µM.
For the compound `COc1ccc(/C=C/C(=O)c2cc(Cl)cc(Cl)c2O)c(OC)c1`, the “activity change, negative = inhibition” value is “inactive”.
Same read-out and setting: in the case of `COc1ccc(C2NC(=O)N(CCCC(=O)O)C(C)=C2C(=O)OCc2ccccc2)cc1` (stereo not given) it was “inactive”.
Consider `O=C(NC1CCSc2ccccc21)c1ccccc1Br` (stereo not given), for which the “activity change, negative = inhibition” value was “inactive”.
On the same count and under the same terms, in the case of `CC[N+](C)(CC)CCCOC(=O)C(O)(c1ccccc1)C1CCCCC1` (stereo not given) it was “inactive”; in that of `CCOC(=O)c1cnc(SCC(=O)NNC(=O)c2ccco2)nc1N`, “inactive”.
Still for that read-out and setting: in the case of `Cc1ccc2cc(C#N)c(N3CCCN(C(=O)C4CCCO4)CC3)nc2c1C` (stereo not given) it was “inactive”; in that of `CCOC(=O)C1CSc2[nH]c(=O)sc2C1c1ccccc1` (stereo not given), “inactive”; in that of `COc1ccc2c(c1)-c1ccccc1S(=O)(=O)N2C(C)=O`, “inactive”.
The same measure, in the same setting: the result for `CCCCN(CCCC)CCNC(=O)CNC(=O)c1cccs1` reads “inactive”; that for `CCCOc1ccc([C@@H]2C3CN(C(=O)OCC)CC=C3C(C#N)=C(N)C2(C#N)C#N)cc1OC` (stereo not given in full), “inactive”; that for `CC(=O)N1C(=O)/C(=C2\SC(=S)N(NC(=O)c3ccc(O)cc3)C2=O)c2ccccc21`, “inactive”.
For `COc1ccc(NCc2n[nH]c(=O)c3ccccc23)cc1`, the “activity change, negative = inhibition” value was “inactive”.
On the same count and under the same terms, the result for `CCCNc1nc2ccccc2n2c(C)nnc12` reads “inactive”.
Same read-out and setting: the result for `CC(=O)Nc1ccc(/C=N/NC(=O)CNS(=O)(=O)c2ccccc2)cc1` reads “inactive”; that for `COc1ccc(/C=C2\CCCc3c2nc2ccc(C)cc2c3C(=O)O)cc1O`, “inactive”.
`CC(=O)CSc1ncnc2nc[nH]c12`: the “activity change, negative = inhibition” value was “inactive”.
On the same count and under the same terms, the result for `COc1cc2c3c(c1OC)-c1cc(O)ccc1CC3NCC2` (stereo not given) reads “inactive”; that for `O=C1SC(SCc2ccccc2)=N/C1=C\c1ccc(C(=O)O)cc1`, “inactive”; that for `Cc1ccc2c(c1Cl)NC(C(=O)O)C1CC(Sc3ccccc3[N+](=O)[O-])C(Cl)C21` (stereo not given), “inactive”.
The same measure, in the same setting: in the case of `O=c1[nH]cnc2c1C(c1ccc(Cl)cc1)c1c(nc[nH]c1=O)O2` it was “inactive”.
On the same count and under the same terms, the result for `O=C(Nc1cccc2ncccc12)c1ccccc1[N+](=O)[O-]` reads “inactive”.
Turning to `Cc1cccn2c(=O)c3cc(C(=O)NC(C)C)c(=N)n(Cc4ccncc4)c3nc12`, the “activity change, negative = inhibition” value was “inactive”.
The same measure, in the same setting: in the case of `COC(=O)COc1ccc2c(c1)O/C(=C\c1cccc([N+](=O)[O-])c1)C2=O` it was “inactive”; in that of `Oc1cccc(NC(=S)N=Nc2c(O)[nH]c3ccc(Br)cc23)c1`, “inactive”; in that of `COc1ccc(N(CCC#N)C(=O)/C(C#N)=C\c2cccs2)cc1`, “inactive”.
Same read-out and setting: in the case of `O=C(NNC(=O)c1ccc([N+](=O)[O-])o1)c1ccccc1` it was “inactive”; in that of `Cn1c(O)c(C2=c3ccccc3=NC2=O)[nH]c1=S`, “inactive”; in that of `CN1CCc2c(sc(NC(=O)c3ccc(S(=O)(=O)N4CCCC4)cc3)c2C(N)=O)C1`, “inactive”.
On to `Cn1c(O)c(N=Nc2ccc(F)cc2)c2ccccc21`, for which the AC50 is 1.75 µM.
For `O=c1[nH]nc(CNc2ccc(OC(F)(F)F)cc2)c2ccccc12`, the “activity change, negative = inhibition” value is “inactive”.
On the same count and under the same terms, in the case of `CCCOc1ccc(C2=CSC3=NCCN23)cc1[N+](=O)[O-]` it was “inactive”; in that of `CN1C(=O)N(C)C(c2cccc([N+](=O)[O-])c2)C2=C1CCCC2=O` (stereo not given), “inactive”; in that of `N=C1C(c2nc3ccccc3[nH]2)=C(O)CN1c1ccc(F)cc1`, “inactive”.
Take `CCN1/C(=C/C=C/c2oc3ccc(-c4ccccc4)cc3[n+]2CC)Oc2ccc(-c3ccccc3)cc21`: the AC50 was 0.338 µM.
For `Oc1cccc(/C=N/NC(=S)Nc2cccnc2)c1O`, the “activity change, negative = inhibition” value is “inactive”.
In the case of `Cc1cccc2c(N=Nc3ccccc3)c(O)[nH]c12`, the AC50 was > 10 µM (inactive).
